Test results reported in patent US10351561B2, “Pyrazolo[3,4-b]pyridines and imidazo[1,5-b]pyridazines as PDE1 inhibitors” (H. Lundbeck A/S, priority 2016, dated 2019).

What was measured:
Format in all cases: biochemical
PDE1A = PDE1A (Homo sapiens, UniProt P54750); assay: PDE1 inhibition assay (PDE1A), SPA with tritium labelled cAMP; details: 15 nM tritium labelled cAMP, 1 hr at room temperature, SPA beads
PDE1C = PDE1C (Homo sapiens, UniProt Q14123); assay: PDE1 inhibition assay (PDE1C), SPA with tritium labelled cAMP; details: 15 nM tritium labelled cAMP, 1 hr at room temperature, SPA beads
PDE1B = PDE1B (Homo sapiens, UniProt Q01064); assay: PDE1 inhibition assay (PDE1B), SPA with tritium labelled cAMP; details: 15 nM tritium labelled cAMP, 1 hr at room temperature, SPA beads; read-out: PDE1B, IC50
Experimental: Reactions were initiated by addition of the cyclic nucleotide substrate, and reactions were allowed to proceed for 1 hr at room temperature before being terminated through mixing with 20 μL (0.2 mg) yttrium silicate SPA beads (PerkinElmer).

Sequence of PDE1B (Q01064 whole entry): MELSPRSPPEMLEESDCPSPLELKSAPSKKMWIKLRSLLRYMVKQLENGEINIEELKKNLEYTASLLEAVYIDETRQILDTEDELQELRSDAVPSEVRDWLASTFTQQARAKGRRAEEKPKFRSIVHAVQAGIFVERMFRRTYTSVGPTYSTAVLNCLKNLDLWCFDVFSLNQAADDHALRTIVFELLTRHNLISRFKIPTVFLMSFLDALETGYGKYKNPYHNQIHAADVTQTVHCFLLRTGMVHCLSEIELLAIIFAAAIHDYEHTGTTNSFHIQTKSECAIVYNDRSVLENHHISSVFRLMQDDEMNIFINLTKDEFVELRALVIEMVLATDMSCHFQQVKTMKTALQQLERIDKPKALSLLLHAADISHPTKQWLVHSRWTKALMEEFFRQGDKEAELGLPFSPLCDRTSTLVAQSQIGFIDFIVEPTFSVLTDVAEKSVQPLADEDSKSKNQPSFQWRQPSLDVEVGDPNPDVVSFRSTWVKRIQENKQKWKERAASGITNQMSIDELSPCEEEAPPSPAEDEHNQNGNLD
Sequence of PDE1A (P54750 whole entry): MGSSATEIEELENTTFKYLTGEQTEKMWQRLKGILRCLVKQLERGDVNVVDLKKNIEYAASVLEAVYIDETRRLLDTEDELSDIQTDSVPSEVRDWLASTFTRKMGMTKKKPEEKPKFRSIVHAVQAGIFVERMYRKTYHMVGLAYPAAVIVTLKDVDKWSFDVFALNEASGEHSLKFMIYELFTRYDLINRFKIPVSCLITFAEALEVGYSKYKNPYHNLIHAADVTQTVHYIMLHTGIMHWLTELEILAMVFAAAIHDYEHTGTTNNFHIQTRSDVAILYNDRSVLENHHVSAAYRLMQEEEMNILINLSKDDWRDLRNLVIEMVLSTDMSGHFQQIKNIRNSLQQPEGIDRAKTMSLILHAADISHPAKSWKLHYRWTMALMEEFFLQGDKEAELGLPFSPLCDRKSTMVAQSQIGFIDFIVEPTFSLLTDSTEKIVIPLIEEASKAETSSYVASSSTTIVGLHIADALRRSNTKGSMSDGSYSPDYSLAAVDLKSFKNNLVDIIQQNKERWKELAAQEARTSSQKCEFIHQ
Sequence of PDE1C (Q14123 whole entry): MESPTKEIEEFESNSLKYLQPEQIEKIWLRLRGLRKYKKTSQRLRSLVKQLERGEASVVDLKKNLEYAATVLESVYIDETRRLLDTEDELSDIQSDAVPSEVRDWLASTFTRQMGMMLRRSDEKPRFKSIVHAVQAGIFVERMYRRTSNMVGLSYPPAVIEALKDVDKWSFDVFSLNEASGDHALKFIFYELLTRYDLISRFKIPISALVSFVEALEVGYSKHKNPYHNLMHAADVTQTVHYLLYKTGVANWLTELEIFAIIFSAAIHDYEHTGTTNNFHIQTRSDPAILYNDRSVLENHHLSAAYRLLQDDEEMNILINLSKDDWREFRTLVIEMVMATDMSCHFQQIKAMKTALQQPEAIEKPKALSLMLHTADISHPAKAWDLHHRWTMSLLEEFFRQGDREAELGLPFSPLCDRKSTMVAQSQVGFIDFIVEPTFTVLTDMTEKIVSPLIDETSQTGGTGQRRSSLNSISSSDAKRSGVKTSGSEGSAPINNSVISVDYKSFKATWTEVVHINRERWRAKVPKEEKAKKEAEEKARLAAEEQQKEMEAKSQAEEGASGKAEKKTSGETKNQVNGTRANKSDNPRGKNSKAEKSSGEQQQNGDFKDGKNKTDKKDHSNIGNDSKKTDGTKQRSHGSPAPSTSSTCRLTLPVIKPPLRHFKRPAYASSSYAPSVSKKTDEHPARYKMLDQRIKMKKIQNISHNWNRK

IC50 (PDE1A): 3.8 nM | IC50 (PDE1C): 2.5 nM | IC50 (PDE1B): 0.29 nM
SMILES: Cc1nc(C(C)C)c2c(NCc3ncn(C)n3)cc(-c3cccc4ncoc34)nn12 [Example 81, 2-(1,3-benzoxazol-7-yl)-5-isopropyl-7-methyl-N-[(1-methyl-1,2,4-triazol-3-yl)methyl]imidazo[1,5-b]pyridazin-4-amine]
